The values below come from paper PMC8524670 (Pharmacology Research & Perspectives, 2021).

In one series the target is P-gp (Homo sapiens, UniProt P08183). The series is described as follows: P-gp inhibition in Caco-2 cells. The format is in vitro ADME. Particulars: up to 10 μM.
A further series addresses T1, OATP1B1 (Homo sapiens, UniProt Q9Y6L6).
T1 sequence (Q9Y6L6 1-691): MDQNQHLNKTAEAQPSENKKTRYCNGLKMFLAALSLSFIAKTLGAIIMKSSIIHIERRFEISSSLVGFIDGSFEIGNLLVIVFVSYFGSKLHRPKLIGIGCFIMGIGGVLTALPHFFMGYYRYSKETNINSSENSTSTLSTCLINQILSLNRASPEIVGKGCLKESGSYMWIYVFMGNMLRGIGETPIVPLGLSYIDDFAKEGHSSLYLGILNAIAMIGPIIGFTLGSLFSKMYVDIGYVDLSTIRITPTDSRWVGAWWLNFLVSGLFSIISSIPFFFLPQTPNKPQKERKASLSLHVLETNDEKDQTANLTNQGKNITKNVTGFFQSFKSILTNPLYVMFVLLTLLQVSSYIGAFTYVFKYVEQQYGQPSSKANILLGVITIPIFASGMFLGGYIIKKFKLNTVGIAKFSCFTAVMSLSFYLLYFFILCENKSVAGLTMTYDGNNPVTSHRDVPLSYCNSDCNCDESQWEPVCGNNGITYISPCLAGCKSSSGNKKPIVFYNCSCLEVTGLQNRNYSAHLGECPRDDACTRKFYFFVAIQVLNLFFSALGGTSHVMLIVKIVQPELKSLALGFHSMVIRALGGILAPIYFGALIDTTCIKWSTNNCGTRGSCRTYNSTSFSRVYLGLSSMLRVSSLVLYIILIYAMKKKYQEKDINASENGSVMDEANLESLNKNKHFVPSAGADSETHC
The series can be described thus: SLC transportation assay in HEK293 cells. Type of series: in vitro ADME. Particulars: uptake ratios <2 at 0.1, 0.3, 5 µM.

In series [1] the target is T2, OATP1B3 (Homo sapiens, UniProt Q9NPD5).
T2 sequence (Q9NPD5 1-702): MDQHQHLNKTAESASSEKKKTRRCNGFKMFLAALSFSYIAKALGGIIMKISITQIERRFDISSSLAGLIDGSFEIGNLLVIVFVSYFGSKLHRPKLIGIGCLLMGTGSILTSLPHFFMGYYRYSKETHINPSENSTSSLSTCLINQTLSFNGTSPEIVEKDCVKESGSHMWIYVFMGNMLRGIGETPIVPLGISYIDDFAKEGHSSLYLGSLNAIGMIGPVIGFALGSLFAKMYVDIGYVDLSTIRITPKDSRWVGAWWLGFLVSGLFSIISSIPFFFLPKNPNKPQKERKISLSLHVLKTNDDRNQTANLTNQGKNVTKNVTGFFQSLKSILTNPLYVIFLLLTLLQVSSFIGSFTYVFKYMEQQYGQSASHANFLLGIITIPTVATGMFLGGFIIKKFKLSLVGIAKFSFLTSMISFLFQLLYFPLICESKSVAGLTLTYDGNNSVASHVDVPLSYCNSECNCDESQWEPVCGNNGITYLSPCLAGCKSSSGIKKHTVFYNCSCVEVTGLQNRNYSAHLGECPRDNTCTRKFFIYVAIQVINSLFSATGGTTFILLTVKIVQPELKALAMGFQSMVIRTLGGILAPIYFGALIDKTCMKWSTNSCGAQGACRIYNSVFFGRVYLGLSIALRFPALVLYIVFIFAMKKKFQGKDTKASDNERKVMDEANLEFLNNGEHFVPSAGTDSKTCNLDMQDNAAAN
The series is described as follows: SLC transportation assay in HEK293 cells. The format is in vitro ADME. To be noted: uptake ratios <2 at 0.1, 0.3, 5 µM.

The target in the next series is T3, OAT3 (Homo sapiens, UniProt Q8TCC7).
T3 sequence (Q8TCC7 1-542): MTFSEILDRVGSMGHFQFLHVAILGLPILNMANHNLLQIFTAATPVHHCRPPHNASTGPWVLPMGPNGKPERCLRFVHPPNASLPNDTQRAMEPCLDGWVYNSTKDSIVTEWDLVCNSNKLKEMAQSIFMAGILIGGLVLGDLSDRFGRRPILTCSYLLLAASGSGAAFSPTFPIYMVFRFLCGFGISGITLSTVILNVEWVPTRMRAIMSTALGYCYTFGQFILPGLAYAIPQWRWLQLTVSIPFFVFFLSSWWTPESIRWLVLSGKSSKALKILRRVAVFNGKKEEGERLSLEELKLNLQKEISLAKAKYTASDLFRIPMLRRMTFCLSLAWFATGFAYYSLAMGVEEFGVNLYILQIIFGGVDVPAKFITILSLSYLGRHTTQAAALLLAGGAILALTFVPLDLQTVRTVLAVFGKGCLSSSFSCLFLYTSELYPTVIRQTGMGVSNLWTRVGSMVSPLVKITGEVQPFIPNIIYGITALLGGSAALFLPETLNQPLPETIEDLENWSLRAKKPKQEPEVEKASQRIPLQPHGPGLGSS
The series can be described thus: SLC transportation assay in HEK293 cells. Type of series: in vitro ADME. Particulars: uptake ratios <2 at 0.1, 0.3, 5 µM.

Series [2] has as its target T2, OATP1B3. The series is described as follows: SLC inhibition assay in HEK293 cells. Type of series: in vitro ADME. Particulars: 0.05–5 µM.
The test system of the next series is CYP1A2. The series is described as follows: in vitro. Particulars: human.
Series [3] has as its target T4, CYP2C9 (Homo sapiens, UniProt P11712). The series can be described thus: CYP reversible inhibition in HLMs. To be noted: diclofenac.
In a further series the target is T5, CYP2C8 (Homo sapiens, UniProt P10632).
T5 sequence (P10632 1-490): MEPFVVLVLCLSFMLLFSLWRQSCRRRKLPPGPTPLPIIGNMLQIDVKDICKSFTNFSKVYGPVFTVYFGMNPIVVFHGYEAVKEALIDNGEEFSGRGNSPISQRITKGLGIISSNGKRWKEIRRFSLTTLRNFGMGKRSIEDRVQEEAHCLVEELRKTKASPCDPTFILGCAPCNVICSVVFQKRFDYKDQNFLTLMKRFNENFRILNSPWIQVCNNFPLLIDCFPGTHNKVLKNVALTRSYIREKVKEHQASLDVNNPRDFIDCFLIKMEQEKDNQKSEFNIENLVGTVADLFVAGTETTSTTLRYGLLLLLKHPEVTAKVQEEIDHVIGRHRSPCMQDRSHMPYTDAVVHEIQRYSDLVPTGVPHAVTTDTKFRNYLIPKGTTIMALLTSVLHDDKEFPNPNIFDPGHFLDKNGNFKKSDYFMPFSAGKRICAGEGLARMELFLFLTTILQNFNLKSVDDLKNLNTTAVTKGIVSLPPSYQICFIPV
The series is described as follows: Time-dependent CYP inhibition in HLMs. Particulars: 10 µM zanubrutinib, 30 min pre-incubation with HLMs and NADPH.

The target of series [4] is T4, CYP2C9. The series can be described thus: Time-dependent CYP inhibition in HLMs. To be noted: 10 µM zanubrutinib, 30 min pre-incubation with HLMs and NADPH.
Another series relates to CYP3A. The series is described as follows: Time-dependent CYP inhibition in HLMs. Particulars: 10 µM zanubrutinib, 30 min pre-incubation with HLMs and NADPH.

T4 sequence (P11712 whole entry): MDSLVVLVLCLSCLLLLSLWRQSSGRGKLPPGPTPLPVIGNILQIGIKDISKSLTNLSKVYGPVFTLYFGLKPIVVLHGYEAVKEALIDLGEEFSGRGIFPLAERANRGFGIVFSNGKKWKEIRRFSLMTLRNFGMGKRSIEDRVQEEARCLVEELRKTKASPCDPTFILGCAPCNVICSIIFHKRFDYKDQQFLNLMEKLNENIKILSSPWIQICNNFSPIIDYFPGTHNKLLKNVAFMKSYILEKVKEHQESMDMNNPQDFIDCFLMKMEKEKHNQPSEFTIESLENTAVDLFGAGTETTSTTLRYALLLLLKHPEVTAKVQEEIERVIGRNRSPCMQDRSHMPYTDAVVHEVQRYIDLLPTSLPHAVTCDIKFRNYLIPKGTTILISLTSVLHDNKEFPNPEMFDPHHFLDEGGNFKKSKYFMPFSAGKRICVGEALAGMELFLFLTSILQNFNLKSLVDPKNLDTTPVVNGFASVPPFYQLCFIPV
P-gp, sequence (P08183 whole entry): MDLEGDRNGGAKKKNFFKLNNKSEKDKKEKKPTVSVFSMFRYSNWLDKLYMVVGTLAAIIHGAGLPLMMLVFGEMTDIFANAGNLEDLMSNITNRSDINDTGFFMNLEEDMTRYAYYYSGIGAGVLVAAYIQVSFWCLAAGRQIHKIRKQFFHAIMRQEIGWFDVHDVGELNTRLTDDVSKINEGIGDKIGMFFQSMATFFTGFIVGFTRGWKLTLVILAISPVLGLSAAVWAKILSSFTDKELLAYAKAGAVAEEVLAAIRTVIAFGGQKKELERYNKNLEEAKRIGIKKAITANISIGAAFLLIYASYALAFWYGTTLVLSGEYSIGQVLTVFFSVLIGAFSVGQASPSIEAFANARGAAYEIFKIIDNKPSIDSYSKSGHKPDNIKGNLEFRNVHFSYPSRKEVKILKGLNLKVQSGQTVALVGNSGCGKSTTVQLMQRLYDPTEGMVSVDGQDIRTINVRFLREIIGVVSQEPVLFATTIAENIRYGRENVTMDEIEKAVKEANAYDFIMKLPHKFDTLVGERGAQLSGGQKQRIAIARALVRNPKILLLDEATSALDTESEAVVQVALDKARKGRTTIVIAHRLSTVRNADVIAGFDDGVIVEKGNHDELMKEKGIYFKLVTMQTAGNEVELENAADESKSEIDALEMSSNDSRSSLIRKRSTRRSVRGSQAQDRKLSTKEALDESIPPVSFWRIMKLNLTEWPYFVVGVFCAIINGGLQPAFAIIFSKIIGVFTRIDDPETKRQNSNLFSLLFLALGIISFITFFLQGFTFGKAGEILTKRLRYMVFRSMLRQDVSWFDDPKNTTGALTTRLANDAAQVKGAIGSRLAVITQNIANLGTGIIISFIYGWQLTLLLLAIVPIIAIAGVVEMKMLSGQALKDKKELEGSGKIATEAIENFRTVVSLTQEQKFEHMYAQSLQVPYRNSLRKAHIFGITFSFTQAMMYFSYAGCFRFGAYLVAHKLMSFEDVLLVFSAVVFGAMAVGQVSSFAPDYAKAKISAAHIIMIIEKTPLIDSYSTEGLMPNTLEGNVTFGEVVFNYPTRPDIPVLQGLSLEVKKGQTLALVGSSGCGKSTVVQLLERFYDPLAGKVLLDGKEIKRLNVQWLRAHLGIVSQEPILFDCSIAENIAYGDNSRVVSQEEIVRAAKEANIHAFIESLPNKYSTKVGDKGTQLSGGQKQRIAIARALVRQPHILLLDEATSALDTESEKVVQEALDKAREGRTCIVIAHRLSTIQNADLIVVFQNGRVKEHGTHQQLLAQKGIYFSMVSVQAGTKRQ

With `C=CC(=O)N1CCC([C@@H]2CCNc3c(C(N)=O)c(-c4ccc(Oc5ccccc5)cc4)nn32)CC1` [zanubrutinib], at P-gp, the P-gp inhibitor status entry was “not a significant inhibitor of P‐gp”. Further, the Substrate status entry on OATP1B1, on OATP1B3 [1] and at OAT3 was “unlikely to be a substrate” each time. In addition, at OATP1B3 [2], the “Inhibition of uptake activity” value is “not inhibited”. This compound also registered a half-maximal effective concentration (EC50) at 2 days in the series with CYP1A2 of 290 nM. The R1 on CYP2C9 [3] (DDI basic model, hepatic) was 1.04. This compound registered an Ah on CYP2C9 [3] (static model term, liver inhibition) of 0.96. The “Percent loss of enzymatic activity” value at CYP2C8 stood at 21.9%; on CYP2C9 [4], 5.86%; with CYP3A, 19.2%.
